In ChEMBL document CHEMBL5154935, “Design, Synthesis, and Biological Evaluation of Novel Evodiamine Derivatives as Potential Antihepatocellular Carcinoma Agents” (J Med Chem, 2022):
Activity calls are given as the source filed them. The rule behind the calls is not given here.

Experiments:
[1] = system: Huh-7; test: Induction of cell cycle arrest in human Huh-7 cells assessed as accumulation at S phase at 80 nM treated for 24 hrs by PI staining based flow cytometry (reference value: 23.33 %); format: functional
[2] = system: SK-HEP1; test: Antiproliferative activity against human SK-HEP1 cells treated for 72 hrs by MTT assay; format: functional, cell-based; settings: SK-HEP1, 72 h
[3] = system: HepG2; test: Antiproliferative activity against human HepG2 cells treated for 72 hrs by MTT assay; format: functional, cell-based; settings: HepG2, 72 h
[4] = Induction of apoptosis in rat HSC-T6 cells assessed as late apoptotic cells at 80 nM pretreated with TGFbeta-1 for 1 day followed by compound addition and measured after 24 hrs by flow cytometry (reference value: 1.76 %); format: functional
[5] = system: SK-HEP1; test: Induction of apoptosis in human SK-Hep1 cells assessed as early apoptotic cells at 80 nM incubated for 24 hrs by annexin V-FITC/PI staining flow cytometry (reference value: 0.30 %); format: functional
[6] = system: SK-HEP1; test: Induction of cell cycle arrest in human SK-Hep1 cells assessed as accumulation at G1 phase at 80 nM treated for 24 hrs by PI staining based flow cytometry (reference value: 58.47 %); format: functional
[7] = system: SK-HEP1; test: Induction of cell cycle arrest in human SK-Hep1 cells assessed as accumulation at G2 phase at 80 nM treated for 24 hrs by PI staining based flow cytometry (reference value: 16.55 %); format: functional
[8] = system: SK-HEP1; test: Induction of apoptosis in human SK-Hep1 cells assessed as necrotic cells at 80 nM incubated for 24 hrs by annexin V-FITC/PI staining flow cytometry (reference value: 0.73 %); format: functional
[9] = system: Huh-7; test: Induction of apoptosis in human Huh-7 cells assessed as late apoptotic cells at 80 nM incubated for 24 hrs by annexin V-FITC/PI staining flow cytometry (reference value: 1.33 %); format: functional
[10] = target: T1, DNA topoisomerase 1 (Homo sapiens) (UniProt P11387); test: Inhibition of Top1 (unknown origin) assessed as inhibition of relaxation of supercoiled pBR322 plasmid DNA at 12.5 uM incubated for 25 mins by ethidium bromide staining based agarose gel electrophoresis analysis relative to control
T1 sequence (whole entry): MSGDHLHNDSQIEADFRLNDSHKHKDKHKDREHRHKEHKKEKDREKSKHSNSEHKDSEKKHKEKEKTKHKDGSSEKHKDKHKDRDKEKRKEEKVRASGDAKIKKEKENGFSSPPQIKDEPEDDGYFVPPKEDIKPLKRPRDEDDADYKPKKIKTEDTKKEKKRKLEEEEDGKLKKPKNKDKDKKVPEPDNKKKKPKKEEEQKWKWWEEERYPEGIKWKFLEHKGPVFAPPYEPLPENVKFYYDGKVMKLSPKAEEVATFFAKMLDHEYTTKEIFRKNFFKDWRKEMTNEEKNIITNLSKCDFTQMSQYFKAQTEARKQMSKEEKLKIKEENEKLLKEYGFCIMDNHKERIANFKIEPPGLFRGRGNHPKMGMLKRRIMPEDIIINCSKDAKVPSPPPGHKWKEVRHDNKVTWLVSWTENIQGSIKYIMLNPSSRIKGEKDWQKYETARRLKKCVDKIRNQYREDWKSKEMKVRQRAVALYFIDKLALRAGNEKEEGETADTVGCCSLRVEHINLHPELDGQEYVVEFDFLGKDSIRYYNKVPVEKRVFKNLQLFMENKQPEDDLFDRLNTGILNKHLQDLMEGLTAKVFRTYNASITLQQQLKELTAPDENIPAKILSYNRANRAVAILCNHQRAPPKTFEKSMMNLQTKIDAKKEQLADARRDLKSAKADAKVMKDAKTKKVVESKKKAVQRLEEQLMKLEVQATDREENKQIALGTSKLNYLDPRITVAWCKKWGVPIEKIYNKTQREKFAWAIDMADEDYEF

[11] = target: T1, DNA topoisomerase 1 (Homo sapiens); test: Inhibition of Top1 (unknown origin) assessed as inhibition of relaxation of supercoiled pBR322 plasmid DNA at 50 uM incubated for 25 mins by ethidium bromide staining based agarose gel electrophoresis analysis relative to control
[12] = system: Huh-7; test: Induction of apoptosis in human Huh-7 cells assessed as viable cells at 80 nM incubated for 24 hrs by annexin V-FITC/PI staining flow cytometry (reference value: 97.3 %); format: functional; settings: read-out: Activity
[13] = target: DNA topoisomerase 2-alpha (Homo sapiens) (UniProt P11388); test: Inhibition of human Top2-alpha expressed in baculovirus assessed as inhibition of relaxation of supercoiled pBR322 plasmid DNA at 100 uM incubated for 30 mins in presence of ATP by ethidium bromide staining based agarose gel electrophoresis analysis relative to control
Sequence of DNA topoisomerase 2-alpha (Homo sapiens) (P11388 whole entry): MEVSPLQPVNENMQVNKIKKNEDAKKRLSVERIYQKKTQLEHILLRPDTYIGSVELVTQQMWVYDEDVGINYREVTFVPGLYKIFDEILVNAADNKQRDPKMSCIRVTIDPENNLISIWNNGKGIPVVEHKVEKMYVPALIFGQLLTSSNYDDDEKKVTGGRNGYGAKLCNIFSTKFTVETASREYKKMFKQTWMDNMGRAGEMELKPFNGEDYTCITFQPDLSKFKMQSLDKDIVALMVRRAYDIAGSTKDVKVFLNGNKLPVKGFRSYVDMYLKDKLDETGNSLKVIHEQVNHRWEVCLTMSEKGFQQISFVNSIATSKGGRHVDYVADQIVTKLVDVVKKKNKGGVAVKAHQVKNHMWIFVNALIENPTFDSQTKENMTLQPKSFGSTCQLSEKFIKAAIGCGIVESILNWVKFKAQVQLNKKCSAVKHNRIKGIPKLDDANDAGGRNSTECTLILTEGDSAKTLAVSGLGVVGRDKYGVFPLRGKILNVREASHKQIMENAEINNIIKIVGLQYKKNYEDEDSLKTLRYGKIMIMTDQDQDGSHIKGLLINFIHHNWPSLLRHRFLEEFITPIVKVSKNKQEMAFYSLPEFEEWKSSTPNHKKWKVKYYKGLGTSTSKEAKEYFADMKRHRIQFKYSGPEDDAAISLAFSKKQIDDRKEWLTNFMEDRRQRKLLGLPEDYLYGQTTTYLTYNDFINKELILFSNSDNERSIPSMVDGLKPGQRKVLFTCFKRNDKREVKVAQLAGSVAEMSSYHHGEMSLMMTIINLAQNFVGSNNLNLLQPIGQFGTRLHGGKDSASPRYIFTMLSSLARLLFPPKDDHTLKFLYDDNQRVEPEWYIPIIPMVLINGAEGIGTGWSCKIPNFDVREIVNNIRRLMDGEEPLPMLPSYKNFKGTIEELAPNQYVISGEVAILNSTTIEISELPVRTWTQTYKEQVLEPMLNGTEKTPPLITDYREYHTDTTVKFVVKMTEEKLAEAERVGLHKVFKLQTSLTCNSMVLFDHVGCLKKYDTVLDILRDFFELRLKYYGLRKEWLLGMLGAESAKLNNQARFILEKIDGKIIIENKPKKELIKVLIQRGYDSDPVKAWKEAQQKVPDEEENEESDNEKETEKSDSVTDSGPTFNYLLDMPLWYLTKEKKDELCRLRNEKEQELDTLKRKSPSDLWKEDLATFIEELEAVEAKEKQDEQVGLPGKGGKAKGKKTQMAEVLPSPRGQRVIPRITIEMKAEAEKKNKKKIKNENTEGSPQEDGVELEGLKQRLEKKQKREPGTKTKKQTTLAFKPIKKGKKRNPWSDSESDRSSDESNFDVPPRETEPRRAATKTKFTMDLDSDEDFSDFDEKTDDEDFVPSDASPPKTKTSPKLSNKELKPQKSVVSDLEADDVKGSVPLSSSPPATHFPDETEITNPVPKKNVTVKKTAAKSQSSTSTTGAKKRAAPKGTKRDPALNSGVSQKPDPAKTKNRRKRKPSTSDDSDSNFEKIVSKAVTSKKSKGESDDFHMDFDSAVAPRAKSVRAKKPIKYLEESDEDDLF

[14] = system: HCCLM9; test: Antiproliferative activity against human HCCLM9 cells treated for 72 hrs by MTT assay; format: functional, cell-based; settings: HCCLM9, 72 h
[15] = Induction of apoptosis in rat HSC-T6 cells assessed as viable cells at 80 nM pretreated with TGFbeta-1 for 1 day followed by compound addition and measured after 24 hrs by flow cytometry (reference value: 97.5 %); format: functional; settings: read-out: Activity
[16] = system: Huh-7; test: Induction of apoptosis in human Huh-7 cells assessed as early apoptotic cells at 80 nM incubated for 24 hrs by annexin V-FITC/PI staining flow cytometry (reference value: 0.33 %); format: functional
[17] = system: SK-HEP1; test: Induction of cell cycle arrest in human SK-Hep1 cells assessed as accumulation at S phase at 80 nM treated for 24 hrs by PI staining based flow cytometry (reference value: 24.98 %); format: functional
[18] = system: Huh-7; test: Induction of cell cycle arrest in human Huh-7 cells assessed as accumulation at G1 phase at 80 nM treated for 24 hrs by PI staining based flow cytometry (reference value: 60.77 %); format: functional
[19] = system: Huh-7; test: Induction of cell cycle arrest in human Huh-7 cells assessed as accumulation at G2 phase at 80 nM treated for 24 hrs by PI staining based flow cytometry (reference value: 15.90 %); format: functional
[20] = system: Huh-7; test: Induction of apoptosis in human Huh-7 cells assessed as necrotic cells at 80 nM incubated for 24 hrs by annexin V-FITC/PI staining flow cytometry (reference value: 1.08 %); format: functional
[21] = Toxicity in BALB/c mouse xenografted with human Huh-7 cells assessed as reduction in WBC levels at 10 mg/kg, ip qd for 11 days and measured on day 11; format: organism-based; settings: in vivo, 264 h, time 11 day
[22] = Antiproliferative activity against human L02 cells treated for 72 hrs by MTT assay; format: toxicity, cell-based
[23] = Induction of apoptosis in rat HSC-T6 cells assessed as necrotic cells at 80 nM pretreated with TGFbeta-1 for 1 day followed by compound addition and measured after 24 hrs by flow cytometry (reference value: 0.56 %); format: functional
[24] = system: SMMC-7721; test: Antiproliferative activity against human SMMC-7721 cells treated for 72 hrs by MTT assay; format: functional, cell-based; settings: SMMC-7721, 72 h
[25] = system: SK-HEP1; test: Induction of apoptosis in human SK-Hep1 cells assessed as late apoptotic cells at 80 nM incubated for 24 hrs by annexin V-FITC/PI staining flow cytometry (reference value: 1.13 %); format: functional
[26] = system: Huh-7; test: Antiproliferative activity against human Huh-7 cells treated for 72 hrs by MTT assay; format: functional, cell-based; settings: Huh-7, 72 h
[27] = Induction of apoptosis in rat HSC-T6 cells assessed as early apoptotic cells at 80 nM pretreated with TGFbeta-1 for 1 day followed by compound addition and measured after 24 hrs by flow cytometry (reference value: 0.17 %); format: functional
[28] = system: SK-HEP1; test: Induction of apoptosis in human SK-Hep1 cells assessed as viable cells at 80 nM incubated for 24 hrs by annexin V-FITC/PI staining flow cytometry (reference value: 97.8 %); format: functional; settings: read-out: Activity
[29] = system: Huh-7; test: Antitumor activity against human Huh-7 cells xenografted in BALB/c mouse assessed as tumor growth inhibition at 10 mg/kg, ip qd for 11 days and measured every 2 days relative to control; format: functional; settings: Huh-7, 264 h, time 11 day, read-out: TGI
[30] = Toxicity in BALB/c mouse xenografted with human Huh-7 cells assessed as histopathological change in spleen at 10 mg/kg, ip qd for 11 days and measured after 12 days by hematoxylin and eosin staining based assay; format: organism-based; settings: in vivo, 288 h, time 12 day
[31] = Toxicity in BALB/c mouse xenografted with human Huh-7 cells assessed as histopathological change in liver at 10 mg/kg, ip qd for 11 days and measured after 12 days by hematoxylin and eosin staining based assay; format: organism-based; settings: in vivo, 288 h, time 12 day
[32] = system: Huh-7; test: Antitumor activity against human Huh-7 cells xenografted in BALB/c mouse assessed as reduction in neo-vascularisation at 10 mg/kg, ip qd for 11 days and measured after 12 days by hematoxylin and eosin staining based assay; format: functional, organism-based; settings: time 12.0 day
[33] = Toxicity in BALB/c mouse xenografted with human Huh-7 cells assessed as histopathological change in kidney at 10 mg/kg, ip qd for 11 days and measured after 12 days by hematoxylin and eosin staining based assay; format: organism-based; settings: in vivo, 288 h, time 12 day
[34] = system: HSC-T6; test: Antiproliferative activity against TGF-beta-1-stimulated rat HSC-T6 cells assessed as suppression of cell proliferation at 6.67 to 60 uM preincubated with TGFbeta-1 for 1 day followed by compound addition and measured after 48 hrs; format: functional, cell-based; settings: dose 6.67-60 µM
[35] = Toxicity in BALB/c mouse xenografted with human Huh-7 cells assessed as histopathological change in heart at 10 mg/kg, ip qd for 11 days and measured after 12 days by hematoxylin and eosin staining based assay; format: organism-based; settings: in vivo, 288 h, time 12 day
[36] = Toxicity in BALB/c mouse xenografted with human Huh-7 cells assessed as histopathological change in lung at 10 mg/kg, ip qd for 11 days and measured after 12 days by hematoxylin and eosin staining based assay; format: organism-based; settings: in vivo, 288 h, time 12 day

Row | IC50 [2] | IC50 [3] | IC50 [14] | IC50 [24] | SMILES | Activity [1] | Activity [4] | Activity [5] | Activity [6] | Activity [7] | Activity [8] | Activity [9] | viability at 0.08 µM [12] | viability at 0.08 µM [15] | Activity [16] | Activity [17] | Activity [18] | Activity [19] | Activity [20] | IC50 at 72 h [22] | Activity [23] | other results
1 | 2920 nM | 2670 nM | 9270 nM | 3040 nM | CN1c2ccccc2C(=O)N2CCc3c([nH]c4ccccc34)C21 (stereo not given) | 23.42% | 4.44% | 0.27% | 60.43% | 3.57% | 1.01% | 5.83% | 92% | 94.4% | 0.57% | 36% | 60.65% | 15.93% | 1.64% | 3950 nM | 0.9% | inhibition [10]: 3.67%; inhibition [11]: 63.4%; inhibition [13]: 48%; Activity [21]: Toxic; Activity [25]: 2.79%; IC50 [26]: 2180 nM; Activity [27]: 0.27%; viability at 0.08 µM [28]: 85%
2 | 1980 nM | 2100 nM | 3150 nM | 2370 nM | CNC(=O)c1cc(Oc2ccc(NC(=O)Nc3ccc(Cl)c(C(F)(F)F)c3)cc2)ccn1 [SORAFENIB] | 37.84% | 7.47% | 1.01% | 60.47% | 5.43% | 1.32% | 3.94% | 94.6% | 91.5% | 0.23% | 34.1% | 53% | 9.16% | 1.18% | 5980 nM | 0.85% | inhibition in vivo at 10 mg/kg [29]: 46.3%; Activity [30]: Non-Toxic; Activity [31]: Non-Toxic; Activity [32]: Active; Activity [33]: Non-Toxic; Activity [25]: 3.5%; IC50 [26]: 2600 nM; Activity [34]: Active; Activity [35]: Non-Toxic; Activity [27]: 0.16%; Activity [36]: Non-Toxic; viability at 0.08 µM [28]: 94.1%
